Converted amounts (≈) assume the structure as drawn. The source made the active and inactive calls. The calls are words filed in the database; no cut-off is given here. Square brackets hold non-standard residues; d marks the D form. Peptide text beside a SMILES is read from it. Dip = N[C@H](C(=O)O)C(c1ccccc1)c1ccccc1
Legend:
Staphylococcus aureus [1] = assay: Antibacterial activity against methicillin resistant Staphylococcus aureus ATCC BAA-1556 after 24 hrs in presence of fetal bovine serum by microtiter plate method; assay type: functional
Escherichia coli [2] = assay: Antibacterial activity against Escherichia coli ATCC 25922 after 24 hrs in presence of 4.5 mM of KCl at by microtiter plate method; assay type: functional
Staphylococcus aureus [3] = assay: Antibacterial activity against methicillin resistant Staphylococcus aureus ATCC BAA-1556 after 24 hrs in presence of 2 mM of CaCl2 by microtiter plate method; assay type: functional
Escherichia coli [4] = assay: Bactericidal activity against Escherichia coli ATCC BAA-2452 assessed as reduction of bacterial growth at MIC by counting formed colonies; assay type: functional, organism-based; details: time <= 4.0 hrs, TDE = time-dependent effect
Staphylococcus aureus [5] = assay: Antibacterial activity against methicillin resistant Staphylococcus aureus ATCC BAA-1556 incubated for 24 hrs by microtiter plate method; assay type: functional; details: Staphylococcus aureus, ATCC BAA-1556, 24 h, read-out: MIC
Staphylococcus aureus [6] = assay: Antibacterial activity against methicillin resistant Staphylococcus aureus ATCC BAA-1556 after 24 hrs in presence of 4.5 mM of KCl by microtiter plate method; assay type: functional
Escherichia coli [7] = assay: Antibacterial activity against Escherichia coli ATCC 25922 after 24 hrs in presence of fetal bovine serum by microtiter plate method; assay type: functional
Pseudomonas aeruginosa [8] = assay: Antibacterial activity against Pseudomonas aeruginosa ATCC 10145 incubated for 24 hrs by microtiter plate method; assay type: functional
Escherichia coli [9] = assay: Antibacterial activity against Escherichia coli ATCC 25922 after 24 hrs in presence of 2 mM CaCl2 at by microtiter plate method; assay type: functional
Escherichia coli [10] = assay: Antibacterial activity against Escherichia coli ATCC 25922 assessed as reduction in microbial growth after 24 hrs in presence of 6 mM of NH4Cl at by microtiter plate method; assay type: functional
Staphylococcus aureus [11] = assay: Bactericidal activity against methicillin resistant Staphylococcus aureus ATCC BAA-1556 assessed as time required for complete reduction of bacterial growth at 4 times MIC by counting formed colonies; assay type: functional
Acinetobacter baumannii = assay: Antibacterial activity against ciprofloxacin resistance Acinetobacter baumannii ATCC BAA1605 incubated for 24 hrs by microtiter plate method; assay type: functional
Staphylococcus aureus [12] = assay: Antibacterial activity against methicillin resistant Staphylococcus aureus ATCC BAA-1556 after 24 hrs in presence of 1 mM of by microtiter plate method; assay type: functional
Staphylococcus aureus [13] = assay: Bactericidal activity against methicillin resistant Staphylococcus aureus ATCC BAA-1556 assessed as time required for complete reduction of bacterial growth at MIC by counting formed colonies; assay type: functional
Escherichia coli [14] = assay: Bactericidal activity against Escherichia coli ATCC BAA-2452 assessed as reduction of bacterial growth at 4 times MIC by counting formed colonies; assay type: functional, organism-based; details: time <= 4.0 hrs, TDE = time-dependent effect
Staphylococcus aureus [15] = assay: Antibacterial activity against methicillin resistant Staphylococcus aureus ATCC BAA-1556 incubated for 24 hrs; assay type: functional
Pseudomonas aeruginosa [16] = assay: Antibacterial activity against Pseudomonas aeruginosa ATCC 27883 incubated for 24 hrs by microtiter plate method; assay type: functional; details: Pseudomonas aeruginosa
Pseudomonas aeruginosa [17] = assay: Antibacterial activity against imipenem resistant Pseudomonas aeruginosa ATCC BAA-1744 incubated for 24 hrs by microtiter plate method; assay type: functional
Escherichia coli [18] = assay: Antibacterial activity against Escherichia coli ATCC 25922 incubated for 24 hrs; assay type: functional
Staphylococcus aureus [19] = assay: Antibacterial activity against methicillin resistant Staphylococcus aureus ATCC BAA-1556 after 24 hrs in presence of 150 mM of NaCl by microtiter plate method; assay type: functional
Escherichia coli [20] = assay: Antibacterial activity against Escherichia coli ATCC 25922 after 24 hrs in presence of 150 mM NaCl by microtiter plate method; assay type: functional
Staphylococcus aureus [21] = assay: Antibacterial activity against Staphylococcus aureus ATCC 29213 incubated for 24 hrs by microtiter plate method; assay type: functional; details: Staphylococcus aureus, ATCC 29213, read-out: MIC
Klebsiella pneumoniae [22] = assay: Antibacterial activity against Klebsiella pneumoniae ATCC 13883 […] incubated for 24 hrs by microtiter plate method; assay type: functional
Staphylococcus aureus [23] = assay: Antibacterial activity against methicillin resistant Staphylococcus aureus ATCC BAA-1556 after 24 hrs in presence of 6 mM of NH4Cl by microtiter plate method; assay type: functional
Staphylococcus aureus [24] = assay: Bactericidal activity against methicillin resistant Staphylococcus aureus ATCC BAA-1556 assessed as reduction of bacterial growth at 4 times MIC by counting formed colonies; assay type: functional, organism-based; details: time <= 4.0 hrs, TDE = time-dependent effect
Staphylococcus aureus [25] = assay: Bactericidal activity against methicillin resistant Staphylococcus aureus ATCC BAA-1556 assessed as reduction of bacterial growth at MIC by counting formed colonies; assay type: functional, organism-based; details: time <= 4.0 hrs, TDE = time-dependent effect
Klebsiella pneumoniae [26] = assay: Antibacterial activity against carbapenem-resistant Klebsiella pneumoniae ATCC BAA-2470 incubated for 24 hrs by microtiter plate method; assay type: functional
[27] = Selectivity ratio of MIC for antibacterial activity against Klebsiella pneumoniae ATCC 13883 to MIC for antibacterial activity against carbapenem-resistant Klebsiella pneumoniae ATCC BAA-2470; assay type: functional
Streptococcus pneumoniae [28] = assay: Antibacterial activity against […] ATCC 49619 incubated for 24 hrs by microtiter plate method; assay type: functional
Bacillus subtilis = assay: Antibacterial activity against Bacillus subtilis ATCC 6633 incubated for 24 hrs by microtiter plate method; assay type: functional
Enterococcus faecalis [29] = assay: Antibacterial activity against Enterococcus faecalis ATCC 29212 incubated for 24 hrs by microtiter plate method; assay type: functional
Escherichia coli [30] = assay: Antibacterial activity against Escherichia coli ATCC 25922 incubated for 24 hrs by microtiter plate method; assay type: functional; details: Escherichia coli, ATCC 25922, 24 h, read-out: MIC
[31] = Selectivity ratio of MIC for antibacterial activity against Pseudomonas aeruginosa ATCC 10145 to MIC for antibacterial activity against imipenem-resistant Pseudomonas aeruginosa ATCC BAA-1744; assay type: functional
Streptococcus pneumoniae [32] = assay: Antibacterial activity against multidrug resistant […] ATCC 700677 incubated for 24 hrs by microtiter plate method; assay type: functional
Enterococcus faecalis [33] = assay: Antibacterial activity against vancomycin-resistant Enterococcus faecalis ATCC 51575 incubated for 24 hrs by microtiter plate method; assay type: functional
Escherichia coli [34] = assay: Antibacterial activity against Escherichia coli NDM-1-resistant ATCC BAA-2452 incubated for 24 hrs by microtiter plate method; assay type: functional
Enterococcus faecium [35] = assay: Antibacterial activity against Enterococcus faecium ATCC 27270 incubated for 24 hrs by microtiter plate method; assay type: functional
Enterococcus faecium [36] = assay: Antibacterial activity against vancomycin-resistant Enterococcus faecium ATCC 700221 incubated for 24 hrs by microtiter plate method; assay type: functional
Bacillus cereus = assay: Antibacterial activity against Bacillus cereus ATCC 13061 incubated for 24 hrs by microtiter plate method; assay type: functional
[37] = Hemolytic activity in human RBC assessed as hemolysis incubated for 2 hrs by spectrophotometer analysis; assay type: toxicity, cell-based, Erythrocyte; details: human red blood cells (erythrocytes)

O=C(O)c1cn(C2CC2)c2cc(N3CCNCC3)c(F)cc2c1=O [CIPROFLOXACIN]
MIC (Staphylococcus aureus [1]): 1.5 µg/mL
MIC (Escherichia coli [2]): 0.3 µg/mL
MIC (Staphylococcus aureus [3]): 1.5 µg/mL
Activity (Escherichia coli [4]): Tde
MIC (Staphylococcus aureus [5]): 3.1 µg/mL (≈ 9.36 µM)
MIC (Staphylococcus aureus [6]): 1.5 µg/mL
MIC (Escherichia coli [7]): 0.3 µg/mL
MIC (Pseudomonas aeruginosa [8]): 0.7 µg/mL (≈ 2.11 µM)
MIC (Escherichia coli [9]): 0.3 µg/mL
MIC (Escherichia coli [10]): 0.3 µg/mL
Activity (Staphylococcus aureus [11]): Active
MIC (Acinetobacter baumannii): 0.7 µg/mL (≈ 2.11 µM)
MIC (Staphylococcus aureus [12]): 1.5 µg/mL
Activity (Staphylococcus aureus [13]): Active
Activity (Escherichia coli [14]): Tde
MBC (Staphylococcus aureus [15]): 50 µg/mL (≈ 151 µM)
MIC (Pseudomonas aeruginosa [16]; ATCC 27883, read-out: MIC): 0.7 µg/mL (≈ 2.11 µM)
MIC (Pseudomonas aeruginosa [17]): 0.7 µg/mL (≈ 2.11 µM)
MBC (Escherichia coli [18]): 12.5 µg/mL (≈ 37.7 µM)
MIC (Staphylococcus aureus [19]): 1.5 µg/mL
MIC (Escherichia coli [20]): 0.3 µg/mL
MIC (Staphylococcus aureus [21]): 1.5 µg/mL (≈ 4.53 µM)
MIC (Klebsiella pneumoniae [22]): 1.5 µg/mL (≈ 4.53 µM)
MIC (Staphylococcus aureus [23]): 0.7 µg/mL
Activity (Staphylococcus aureus [24]): Tde
Activity (Staphylococcus aureus [25]): Tde
MIC (Klebsiella pneumoniae [26]): 0.7 µg/mL (≈ 2.11 µM)

N=C(N)NCCC[C@@H]1NC(=O)[C@H](CCCNC(=N)N)NC(=O)[C@H](C(c2ccccc2)c2ccccc2)NC(=O)[C@H](C(c2ccccc2)c2ccccc2)NC(=O)[C@H](C(c2ccccc2)c2ccccc2)NC(=O)[C@H](CCCNC(=N)N)NC1=O (cyclo([Dip][Dip][Dip]RRR))
Ratio [27]: 2
MIC (Staphylococcus aureus [5]): 3.1 µg/mL (≈ 2.72 µM)
MIC (Streptococcus pneumoniae [28]): 50 µg/mL (≈ 43.9 µM)
MIC (Bacillus subtilis): 3.1 µg/mL (≈ 2.72 µM)
MIC (Pseudomonas aeruginosa [8]): 50 µg/mL (≈ 43.9 µM)
MIC (Acinetobacter baumannii): 25 µg/mL (≈ 22 µM)
MIC (Enterococcus faecalis [29]): 12.5 µg/mL (≈ 11 µM)
MIC (Escherichia coli [30]): 12.5 µg/mL (≈ 11 µM)
Ratio [31]: 2
MIC (Pseudomonas aeruginosa [16]; ATCC 27883, 24 h, read-out: MIC): 12.5 µg/mL (≈ 11 µM)
MIC (Streptococcus pneumoniae [32]): 25 µg/mL (≈ 22 µM)
MIC (Pseudomonas aeruginosa [17]): 25 µg/mL (≈ 22 µM)
MIC (Enterococcus faecalis [33]): 12.5 µg/mL (≈ 11 µM)
MIC (Escherichia coli [34]): 25 µg/mL (≈ 22 µM)
MIC (Enterococcus faecium [35]): 3.1 µg/mL (≈ 2.72 µM)
MIC (Enterococcus faecium [36]): 6.2 µg/mL (≈ 5.45 µM)
MIC (Bacillus cereus): 6.2 µg/mL (≈ 5.45 µM)
MIC (Staphylococcus aureus [21]): 3.1 µg/mL (≈ 2.72 µM)
MIC (Klebsiella pneumoniae [22]): > 50 µg/mL
HC50 at 2 h [37]: 45 µg/mL
MIC (Klebsiella pneumoniae [26]): 12.5 µg/mL (≈ 11 µM)

From ChEMBL document CHEMBL5154681, “Small Amphiphilic Peptides: Activity Against a Broad Range of Drug-Resistant Bacteria and Structural Insight into Membranolytic Properties” (J Med Chem, 2022)
